Tests used:
[1] = biological target: T1, cell fractions of Methylosinus sp. (CRL-15, NRRL B-11,202) (Methylosinus trichosporium, UniProt Q50541+Q9KX50+Q9KX51); assay: Oxidation by cell fractions P(40), P(80), S(80); format: biochemical; conditions: P(40) particulate fraction; alkene to epoxide, alkane to alcohol; 30° C.
T1 sequence (Q9KX50 40-431): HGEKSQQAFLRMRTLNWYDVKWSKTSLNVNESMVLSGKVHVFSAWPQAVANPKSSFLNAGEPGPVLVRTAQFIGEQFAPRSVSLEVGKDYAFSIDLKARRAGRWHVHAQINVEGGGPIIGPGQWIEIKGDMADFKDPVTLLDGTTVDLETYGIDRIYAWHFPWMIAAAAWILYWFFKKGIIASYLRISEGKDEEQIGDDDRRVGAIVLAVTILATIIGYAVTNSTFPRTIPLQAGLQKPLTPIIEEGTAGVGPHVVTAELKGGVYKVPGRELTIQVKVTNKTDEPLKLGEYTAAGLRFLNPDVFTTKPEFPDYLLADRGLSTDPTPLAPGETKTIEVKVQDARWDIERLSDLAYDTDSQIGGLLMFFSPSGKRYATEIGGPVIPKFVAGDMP
T1 sequence (Q50541 1-252): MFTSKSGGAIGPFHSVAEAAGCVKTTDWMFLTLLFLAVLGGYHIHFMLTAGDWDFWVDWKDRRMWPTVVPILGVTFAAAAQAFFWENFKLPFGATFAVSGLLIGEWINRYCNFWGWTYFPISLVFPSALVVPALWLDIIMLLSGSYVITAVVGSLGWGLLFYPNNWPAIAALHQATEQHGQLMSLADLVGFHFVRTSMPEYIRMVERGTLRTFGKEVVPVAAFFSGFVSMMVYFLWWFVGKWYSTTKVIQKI
T1 sequence (Q9KX51 1-256): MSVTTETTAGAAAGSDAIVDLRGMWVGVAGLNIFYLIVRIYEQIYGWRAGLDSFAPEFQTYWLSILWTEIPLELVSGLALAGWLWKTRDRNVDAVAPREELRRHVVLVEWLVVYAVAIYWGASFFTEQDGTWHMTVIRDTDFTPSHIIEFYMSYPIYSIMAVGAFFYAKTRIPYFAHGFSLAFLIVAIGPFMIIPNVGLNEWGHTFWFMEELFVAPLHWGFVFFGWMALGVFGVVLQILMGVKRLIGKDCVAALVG
Experimental: Cells were washed twice with 25 mM potassium phosphate buffer, pH 7.0 containing 5 mM MgCl2. Cells were suspended in the same buffer. The cell suspensions at 4° C. were disintegrated by a single passage through a French Pressure cell (15,000 lb./in.^2) and centrifuged at 5000×g. for 15 min. to remove unbroken bacteria. The supernatant solution (crude extract) was then centrifuged at 40,000×g. for 30 min., yielding particulate P(40) and soluble S(40) fractions. The S(40) fraction was subsequently centrifuged at 80,000×g. for 60 min., yielding particulate P(80) and soluble S(80) fractions. The particulate fractions [P(40) and P(80)] were suspended in 25 mM potassium phosphate buffer, pH 7.0, containing 5 mM MgCl2 and homogenized at 4° C.
The oxidation of methane and propylene by particulate [(P)40 and (P)80] fractions and soluble [S(80)] fraction was measured at 30° C. by estimating the production of methanol and propylene oxide, respectively. The reaction mixtures contained in […]: 150 mM potassium phosphate buffer, pH 7.0 containing 5 mM MgCl2 b, 0.6 ml; 10μ moles NADH, and cellular fraction.
Reaction mixtures were contained in 10 ml vials at 4° C. Vials were sealed with rubber caps. The gaseous phase in the vials was removed using vacuum and then was replaced with a gas mixture of methane or propylene and oxygen at a 1:1, v/v ratio. Oxidation of other gaseous n-alkanes and n-alkanes was examined as described above. For liquid substrates, 10 μl of substrate was used directly.
The products of epoxidation of n-alkenes and hydroxylation of n-alkanes were assayed by flame ionization gas chromatography using a stainless steel column (12'×1/8") packed with 10% Carbowax 20 M on 80/100 Chromosorb W and Porapak Q column. The column temperature was maintained isothermally at 120° C. The carrier gas flow rate was 30 ml/min. of helium. The various products were identified by retention time comparisons and co-chromatography with authentic standards.
Specific activities were expressed as μ moles of products formed per hour per mg. protein. Concentrations of protein in various fractions were determined by the method of Lowry et al., J. Biol. Chem., 193: 265-275 (1951).

[2] = test system: methane-grown methylotrophic microorganisms; assay: Epoxidation by methane-grown cells of the strains of the invention; format: cell-based
Experimental: The pH of the nutrient medium was adjusted to 7.0 by the addition of acid or base and 50 ml samples of the nutrient medium were charged into a plurality of 300 ml shaker flasks. The shaker flasks were inoculated with an inoculating loop of cells from an agar plate containing homogeneous colonies of the microorganisms on the plate (the purity of the isolates was confirmed by microscopic examination. The isolates had been maintained on agar plates under an atmosphere of methane and air having a 1:1 v/v gas ratio which had been transferred evey two weeks. The gaseous phase of the inoculated flasks was then replaced with a gas mixture comprised of methane and air having a ratio of 1:1 on a v/v basis. The inoculated flasks were sealed air tight and were incubated on a rotary shaker of orbital radius 2.5 cm at 250 rpm and at 30° C. for two days until turbidity in the medium had developed.
The cells were harvested by centrifugation at 10,000×g. at 4° C. for 30 minutes. The cell pellet was washed twice with a 0.15 M phosphate buffer at a pH of 7.0 (containing 0.002 M MgCl2). […]
A 0.5 ml sample of each washed cell suspension (2 mg cells) was put into 10 ml vials at 4° C. which were sealed with a rubber cap. […] Samples of product (3 μl) were withdrawn periodically with a microsyringe and the products were analyzed by gas chromatography (ionization flame detector column). […]

C=CCCC [1-Pentene]
Rate of Product Formation [1]: 0 μ moles/hr/mg of protein | epoxide product formation [2]: did not produce any detectable epoxide product

Source: patent publication US4347319A, “Microbiological epoxidation process” (priority 1980, dated 1982)
